The subject of series [1] is A2/Taiwan/1/64 (H2N2), M2 WT. The series is described as follows: microbe, parasite or virus in culture. In kind it is cell-based. Conditions: read-out: EC50 A2/Taiwan/1/64 (H2N2).
For series [2], the system named is A/Victoria/3/75 (H3N2), M2 WT. Briefly: microbe, parasite or virus in culture. In kind it is cell-based. The conditions noted are these: read-out: EC50 A/Victoria/3/75 (H3N2).

The results in this text go back to patent publication US9840465B2 (priority 2013, dated 2017).

pEC50: −log10 of the molar value. Counter-ions that a name gives are not always drawn. Like-named read-outs stand apart in the source and are kept apart here.

By melting point is commonly meant the temperature, or range, at which the solid turns liquid. With `CCCCCCC1(N)C2CC3CC(C2)CC1C3` (stereo not drawn) (as salt: fumarate) [Compound 101, 2-n-hexyl-tricyclo[3.3.1.1^3,7]decan-2-amine], the melting point came to 225 °C.

For the compound `CCCCC1(N)C2CC3CC(C2)CC1C3` (stereo not drawn) [Compound 17, (1r,3r,5r,7r)-2-butyladamantan-2-amine], the pEC50 in series [1] was 5.82; in series [2] it was 5.40.

Consider `CCC1CCC2(N1)C1CC3CC(C1)CC2C3` (stereo not drawn) (as salt: fumarate) [Compound 347, 5-ethylspiro[pyrrolidine-2,2′-tricyclo[3.3.1.1^3,7]decane]], for which the melting point is 191 to 193 °C (dec.).

With `CCCCCCC1(N)C2CC3CC(C2)CC1C3` (stereo not drawn) [Compound 101, 2-n-hexyl-tricyclo[3.3.1.1^3,7]decan-2-amine], the pEC50 in series [1] (Influenza A virus, H2N2, MDCK) was 5.82; in series [2] (Influenza A virus, H3N2, MDCK), 5.96. Also, in the series on MDCK cells, the “microscopic evidence of cytotoxicity to MDCK cells” value is given as “No microscopic evidence of cytotoxicity”.

As for `CC(C)(N)C12CC3CC(CC(C3)C1)C2` [Compound 259, 2-(adamantan-1-yl)propan-2-amine], the pEC50 is 5.96 in series [1] (Influenza A virus, H2N2, MDCK) and 5.47 in series [2] (Influenza A virus, H3N2, MDCK).

With `CC(N)C12CC3CC(CC(C3)C1)C2` (stereo not drawn) [Rimantadine (2), Rimantadine, reference compound], the pEC50 in series [1] (Influenza A virus, H2N2, MDCK) was 5.80; in series [2] (Influenza A virus, H3N2, MDCK), 6.28.

On to `NC12CC3CC(CC(C3)C1)C2` [Amantadine (1), Amantadine, reference compound], for which the pEC50 in series [1] (Influenza A virus, H2N2, MDCK) was 6.47; in series [2] (Influenza A virus, H3N2, MDCK), 5.55.

`NC1(c2ccccc2)C2CC3CC(C2)CC1C3` (stereo not drawn) [Compound 19, (1r,3r,5r,7r)-2-phenyladamantan-2-amine]: the pEC50 was 6.70 in series [1] and 5.10 in series [2].

Take `CCCC1(N)C2CC3CC(C2)CC1C3` (stereo not drawn) [Compound 7]: the pEC50 in series [1] (Influenza A virus, H2N2, MDCK) is > 6.62; in series [2] (Influenza A virus, H3N2, MDCK) it was 4.64.

`NC1(Cc2ccccc2)C2CC3CC(C2)CC1C3` (stereo not drawn) [Compound 20, (1r,3r,5r,7r)-2-benzyladamantan-2-amine]: the pEC50 in series [1] was 6.70; in series [2], 4.74.

Regarding `CC(C)CC1(N)C2CC3CC(C2)CC1C3` (stereo not drawn) [Compound 18, (1r,3r,5r,7r)-2-isobutyladamantan-2-amine], the results for the pEC50 in series [1] and in series [2] were 6.40 and 4.89, respectively.
